The values that follow come from ChEMBL document CHEMBL1131281, “Cyclopentanedi- and tricarboxylic acids as squalene synthase inhibitors: syntheses and evaluation” (Bioorg Med Chem Lett, 1998).

The target of the first experiment is T1, Squalene synthase (Rattus norvegicus, UniProt Q02769).
T1 sequence (Q02769 whole entry): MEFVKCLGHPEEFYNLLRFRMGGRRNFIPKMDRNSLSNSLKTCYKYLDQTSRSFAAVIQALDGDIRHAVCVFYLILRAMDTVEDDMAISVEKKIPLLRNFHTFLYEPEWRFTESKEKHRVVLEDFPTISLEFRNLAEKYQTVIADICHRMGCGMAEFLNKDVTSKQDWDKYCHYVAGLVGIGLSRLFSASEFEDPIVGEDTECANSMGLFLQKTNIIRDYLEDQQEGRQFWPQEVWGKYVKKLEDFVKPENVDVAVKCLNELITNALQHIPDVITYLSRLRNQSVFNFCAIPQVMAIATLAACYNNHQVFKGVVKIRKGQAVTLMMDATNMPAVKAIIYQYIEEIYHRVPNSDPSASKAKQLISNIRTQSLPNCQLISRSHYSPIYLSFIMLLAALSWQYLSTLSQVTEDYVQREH
As to the kind of experiment: Percent inhibition of squalene synthase from rat liver microsomes using [3H]farnesyl pyrophosphate (FPP) as substrate; NA indicates <20% inhibition at 1 uM concentration.
As to `CCCN(Cc1ccc(Oc2ccccc2)cc1)C(=O)[C@H]1C[C@@H](C(=O)N(CCC)Cc2ccc(Oc3ccccc3)cc2)[C@](CC(=O)O)(C(=O)O)C1`, the IC50 entry is reported as “Not Active”. For the compound `CCCN(Cc1ccc(Oc2ccccc2)cc1)C(=O)[C@@H]1[C@H](C(=O)O)[C@@H](C(=O)N(CCC)Cc2ccc(Oc3ccccc3)cc2)O[C@H]1C(=O)O`, the IC50 result was “Not Active”.

The target of another experiment is T2, Squalene synthase (Rattus norvegicus) (UniProt Q02769).
T2 sequence (whole entry): T1 sequence (Q02769 whole entry)
As to the kind of experiment: Percent inhibition of squalene synthase from rat liver microsomes using [3H]farnesyl pyrophosphate (FPP) as substrate at 1 uM concentration. A general note: Liver microsomes are a subcellular fraction often used to study metabolism.
`CCCN(Cc1ccc(Oc2ccccc2)cc1)C(=O)[C@@H]1[C@@H](C(=O)N(CCC)Cc2ccc(Oc3ccccc3)cc2)[C@@H](C(=O)O)C[C@@H]1C(=O)O` displayed an inhibition of 24%. Same read-out and setting: the value for `CCCN(Cc1ccc(Oc2ccccc2)cc1)C(=O)[C@@H]1[C@@H](C(=O)N(CCC)Cc2ccc(Oc3ccccc3)cc2)[C@H](C(=O)O)C[C@@H]1C(=O)O` was 45%. `CCCN(Cc1ccc(Oc2ccccc2)cc1)C(=O)[C@H]1C[C@@H](C(=O)N(CCC)Cc2ccc(Oc3ccccc3)cc2)[C@@](CC(=O)O)(C(=O)O)[C@H]1C(=O)O` showed an inhibition of 25%. The same measure, in the same setting: the value for `CCCN(Cc1ccc(Oc2ccccc2)cc1)C(=O)[C@H]1C[C@@H](C(=O)N(CCC)Cc2ccc(Oc3ccccc3)cc2)[C@@](CC(=O)O)(C(=O)O)[C@@H]1C(=O)O` was 38%; that for `CCCN(Cc1ccc(Oc2ccccc2)cc1)C(=O)[C@H]1C[C@@H](C(=O)N(CCC)Cc2ccc(Oc3ccccc3)cc2)[C@@](CC(=O)O)(C(=O)O)C1` was 44%.

Another experiment deals with T1, Squalene synthase. Kind of experiment: Compound was tested for inhibition of squalene synthase from rat liver microsomes using [3H]farnesyl pyrophosphate (FPP) as substrate.
`CCCN(Cc1ccc(Oc2ccccc2)cc1)C(=O)[C@H]1C[C@@H](C(=O)N(CCC)Cc2ccc(Oc3ccccc3)cc2)[C@H](C(=O)O)[C@H]1C(=O)O` gave an IC50 of 580 nM. As to `CCCN(Cc1ccc(Oc2ccccc2)cc1)C(=O)[C@@H]1[C@H](C(=O)N(CCC)Cc2ccc(Oc3ccccc3)cc2)[C@H](C(=O)O)C[C@@H]1C(=O)O`, the IC50 was determined as 9100 nM. For the compound `CCCN(Cc1ccc(Oc2ccccc2)cc1)C(=O)[C@H]1[C@@H](C(=O)O)[C@@H](C(=O)N(CCC)Cc2ccc(Oc3ccccc3)cc2)C[C@H]1C(=O)O`, the IC50 is 2900 nM. For the compound `CCCN(Cc1ccc(Oc2ccccc2)cc1)C(=O)[C@H]1[C@@H](C(=O)O)[C@H](C(=O)O)O[C@@H]1C(=O)N(CCC)Cc1ccc(Oc2ccccc2)cc1`, the half-inhibitory concentration (IC50) turned out to be 3000 nM.

`CCCN(Cc1ccc(Oc2ccccc2)cc1)C(=O)[C@H]1C[C@@H](C(=O)N(CCC)Cc2ccc(Oc3ccccc3)cc2)[C@](CC(=O)O)(C(=O)O)[C@H]1C(=O)O` registered an IC50 of 240 nM.

In turn, `CCCN(Cc1ccc(Oc2ccccc2)cc1)C(=O)[C@H]1C[C@H](C(=O)N(CCC)Cc2ccc(Oc3ccccc3)cc2)[C@H](C(=O)O)[C@H]1C(=O)O` came in with an IC50 of 170 nM.

In general, IC50 refers to the concentration that gives 50% inhibition. In general, inhibition refers to the percentage by which the read-out fell short of the control.
